Assay results reported in paper PMC8707461, “In Vitro and In Vivo Inhibition of MATE1 by Tyrosine Kinase Inhibitors” (Pharmaceutics, 2021).
Several values for one entry are separate records, joined by “and”; a condition that tells them apart may be missing. Equal entries are not always repeated. Where two headings read alike, the source gives them in different places.

What was measured:
[1] = test system: MATE1; details: cited from earlier work
[2] = biological target: T1, MATE1 (Homo sapiens, UniProt Q96FL8); experiment: [14C]TEA uptake in HEK293 cells overexpressing human MATE1; details: for inhibition of MATE1-mediated uptake of TEA (in words): TKI 10 µM; for inhibition at 10 µM: human
T1 sequence (Q96FL8 1-570): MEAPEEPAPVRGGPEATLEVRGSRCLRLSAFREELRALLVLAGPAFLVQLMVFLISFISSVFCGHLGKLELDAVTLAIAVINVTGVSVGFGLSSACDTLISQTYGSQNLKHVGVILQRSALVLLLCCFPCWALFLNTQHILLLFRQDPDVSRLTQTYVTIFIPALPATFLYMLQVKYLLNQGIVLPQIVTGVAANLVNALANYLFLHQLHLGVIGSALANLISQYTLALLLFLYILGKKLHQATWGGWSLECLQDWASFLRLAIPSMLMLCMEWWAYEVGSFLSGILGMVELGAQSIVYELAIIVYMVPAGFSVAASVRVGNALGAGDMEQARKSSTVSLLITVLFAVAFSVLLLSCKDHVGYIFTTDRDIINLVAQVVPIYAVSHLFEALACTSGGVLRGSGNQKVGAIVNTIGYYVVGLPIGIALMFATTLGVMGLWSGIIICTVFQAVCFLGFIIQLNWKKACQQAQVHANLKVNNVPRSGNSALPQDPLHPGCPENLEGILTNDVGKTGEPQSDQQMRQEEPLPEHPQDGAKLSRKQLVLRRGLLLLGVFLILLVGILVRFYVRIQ
Protocol: (§1) Uptake experiments in HEK293 cells overexpressing mouse (m) and human (h) OCT2 or MATE1 were performed with radiolabeled tetraethylammonium (TEA) as the model substrate, using standard methods in the presence or absence of TKIs. The cell culture and uptake conditions for cells expressing mMATE1 or hMATE1 were described previously. […] Since the inhibitory potential of various xenobiotics against OCT2 and MATE1 is dependent on preincubation with perpetrator drugs, a 15-min preincubation period with the TKIs was employed unless stated otherwise. All results were normalized to uptake values in cells transfected with an empty vector or DMSO-treated groups.
(§2) MATE1-overexpressed cells were pre-incubated with transport media containing 30 mM ammonium chloride for 20 min at 37 °C following previously published protocol (pH 7.4 for hMATE1 [17, 18, 19] and pH 8.4 for mMATE1 [20, 21]) to ensure interactions can be evaluated between outward-facing MATE1 and substrate uptake before adding inhibitors. Then, preincubation media was removed and cells were incubated with transport media (NH4Cl free) containing radiolabeled compounds. […] The uptake of TEA and metformin was measured by liquid scintillation counting, as described previously. For uptake studies involving platinum drugs, cells were collected with TrypLE, and the pellets were lysed overnight in 0.2% nitric acid. After sonication, total platinum levels were determined by flameless atomic absorption spectrometry.

[3] = biological target: T2, human OCT2 (Homo sapiens, UniProt O15244); experiment: [14C]TEA uptake in HEK293 cells stably transfected with human OCT2; format: cell-based; details: TKI 10 µM
T2 construct: host or cells: HEK293 (Flp-In system, pcDNA5/FRT)
T2 sequence (O15244 1-555): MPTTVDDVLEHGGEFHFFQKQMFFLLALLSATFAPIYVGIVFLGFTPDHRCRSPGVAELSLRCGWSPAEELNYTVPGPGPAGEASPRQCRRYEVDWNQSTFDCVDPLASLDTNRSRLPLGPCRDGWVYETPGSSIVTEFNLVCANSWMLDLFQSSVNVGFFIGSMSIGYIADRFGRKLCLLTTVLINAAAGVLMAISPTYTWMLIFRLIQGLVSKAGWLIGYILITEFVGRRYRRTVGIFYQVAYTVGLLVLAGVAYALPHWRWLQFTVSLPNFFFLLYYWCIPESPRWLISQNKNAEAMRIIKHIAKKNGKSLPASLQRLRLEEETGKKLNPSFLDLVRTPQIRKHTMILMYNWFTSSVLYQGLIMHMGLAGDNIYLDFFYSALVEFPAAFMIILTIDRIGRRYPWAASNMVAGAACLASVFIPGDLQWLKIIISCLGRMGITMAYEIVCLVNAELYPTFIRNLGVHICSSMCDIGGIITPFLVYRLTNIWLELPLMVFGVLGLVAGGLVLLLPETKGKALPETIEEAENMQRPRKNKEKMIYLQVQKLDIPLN
Protocol: as §1, §2

[4] = Murine plasma pharmacokinetics of total platinum; format: in vivo, mouse
Excerpt: For pharmacokinetic studies, plasma and tissue samples were collected from male wild-type mice (8–12 weeks old), and age-matched MATE1-deficient [MATE1(−/−)] mice, and mice additionally deficient for OCT1 and OCT2 [OCT1/2/MATE1(−/−)], following an established protocol. All animals were backcrossed on an FVB strain, were given a standard diet and water ad libitum, and housed and handled in accordance with the University Laboratory Animal Resources (ULAR) Animal Care and Use Committee at The Ohio State University (2015A00000101-R1). […] Concentrations of total platinum in plasma and tissues were measured by flameless atomic absorption spectrometry, as previously reported, by interpolation of unknown readings on linear calibration curves prepared in drug-free nitric acid (0.2%) using linear-least squares regression analysis.

[5] = Urinary excretion of oxaliplatin in mice (metabolic cages); format: in vivo, mouse; details: mice deficient in MATE1 or both OCT2 and MATE1 vs wild-type; oxaliplatin 10 mg/kg i.p.
[6] = cited from earlier work
[7] = Human plasma pharmacokinetics of total platinum, patient with colorectal cancer; format: in vivo; details: oxaliplatin 85 mg/m2 i.v. infusion
Protocol: In order to assess the degree of MATE1 inhibition by dasatinib, analyses of N-methylnicotinamide (see below) were performed in plasma samples collected at serial time points (up to 24 h after the end of infusion). Plasma samples were also subjected to dasatinib analysis by liquid chromatography with tandem mass spectrometric detection (LC-MS/MS) and analyzed for total platinum levels by flameless atomic absorption spectrometry. The study protocol (ClinicalTrial.gov Identifier: NCT04164069) was approved by the institutional review board of the -The Ohio State University Comprehensive Cancer Center (OSU IRB #2019C0141, approval date 01 March 2019), and the patient provided written informed consent prior to enrollment.

[8] = biological target: T3, mouse MATE1 (Mus musculus, UniProt Q8K0H1); experiment: cell-based
T3 sequence (Q8K0H1 1-567): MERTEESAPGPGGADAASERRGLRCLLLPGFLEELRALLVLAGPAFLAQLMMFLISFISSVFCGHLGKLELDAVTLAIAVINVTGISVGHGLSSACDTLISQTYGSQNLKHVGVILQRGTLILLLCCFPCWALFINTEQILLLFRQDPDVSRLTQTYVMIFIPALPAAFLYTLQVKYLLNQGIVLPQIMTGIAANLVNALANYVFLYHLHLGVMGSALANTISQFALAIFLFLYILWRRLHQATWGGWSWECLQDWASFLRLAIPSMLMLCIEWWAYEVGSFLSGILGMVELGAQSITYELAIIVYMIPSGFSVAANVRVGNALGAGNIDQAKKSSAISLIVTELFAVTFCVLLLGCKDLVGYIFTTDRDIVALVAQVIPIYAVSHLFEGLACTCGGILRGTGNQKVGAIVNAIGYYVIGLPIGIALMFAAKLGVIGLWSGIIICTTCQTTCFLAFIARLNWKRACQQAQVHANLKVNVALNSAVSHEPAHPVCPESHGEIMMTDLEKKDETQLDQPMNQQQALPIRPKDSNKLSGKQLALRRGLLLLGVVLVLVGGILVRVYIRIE
Protocol: as §1, §2

[9] = test system: mouse OCT2, or MATE1 transporters; details: dasatinib 10 µM, oxaliplatin 50 µM
Protocol: as §1
as §2, with “For uptake studies involving platinum drugs, cells were collected with TrypLE, and the pellets were lysed overnight in 0.2% nitric acid.” left out

[10] = test system: human OCT2, or MATE1 transporters; details: dasatinib 10 µM, oxaliplatin 50 µM
Protocol: as §1
as §2, with “For uptake studies involving platinum drugs, cells were collected with TrypLE, and the pellets were lysed overnight in 0.2% nitric acid.” left out

[11] = test system: MATE1 gene; experiment: MATE1 gene expression by RT-PCR in MATE1-overexpressing cells exposed to TKIs; format: cell-based, human
Excerpt: RNA was extracted using the Qiagen kit from treated cells in 12-well plates or kidney tissues obtained from untreated or treated mice. Taqman primers Hs00217320_m1 and Mm00840361_m1 were obtained from Thermo Fisher Scientific (Waltham, MA, USA) and used for the hMATE1 and mMATE1 genes. The primers Hs02786624_g1 and Mm99999915_g1 were used as the house-keeping control genes for hGAPDH and mGAPDH, respectively.

[12] = test system: MATE1; experiment: Plasma N-methylnicotinamide (NMN) as MATE1 biomarker in mice after dasatinib; format: in vivo, mouse; details: wild-type mice, dasatinib 15 mg/kg oral
[13] = parameters: method as in PMID 18787054; details: cited from earlier work
[14] = publicly available information, ref FDA/EMA or supplement refs 1-8
[15] = HEK293 cells overexpressing human MATE1, pH 7.4, probe [14C]TEA (tetraethylammonium), 2 µM
[16] = OCT1,2/MATE1-/- mice + dasatinib 15 mg/kg p.o. pretreatment, oxaliplatin 10 mg/kg i.p.
[17] = OCT1,2/MATE1-/- mice, cisplatin 15 mg/kg i.p. or oxaliplatin 10 mg/kg i.p.
[18] = wild-type mice + dasatinib 15 mg/kg p.o. pretreatment, oxaliplatin 10 mg/kg i.p.
[19] = wild-type mice, cisplatin 15 mg/kg i.p. or oxaliplatin 10 mg/kg i.p.
[20] = dasatinib pre-treatment 100 mg p.o.
[21] = Mouse IC50, HEK293 cells overexpressing mouse MATE1

COc1cc(Nc2c(C#N)cnc3cc(OCCCN4CCN(C)CC4)c(OC)cc23)c(Cl)cc1Cl [Bosutinib]
IC50 [1, 14]: < 10 µM | inhibition of MATE1-mediated uptake of TEA (in words) [2]: potently inhibiting | inhibition at 10 µM [2, 15]: 99.2% | influence on OCT2 function (in words) [3]: potently inhibiting

O=C1[O][Pt]2([NH][C@@H]3CCCC[C@H]3[NH]2)[O]C1=O [Oxaliplatin]
AUC [4, 16]: 7530 ± 900 ng·h/mL | Cmax [4, 16]: 3860 ± 10 ng/mL | AUC [4, 17]: 10500 ± 10 ng·h/mL | Cmax [4, 17]: 3610 ± 180 ng/mL | AUC [4, 18]: 12200 ± 710 ng·h/mL | Cmax [4, 18]: 4800 ± 10 ng/mL | plasma pharmacokinetic profile after dasatinib pretreatment (in words) ([4]; wild-type mice, single dose of dasatinib 15 mg/kg): unchanged | AUC [4, 19]: 10700 ± 1000 ng·h/mL | Cmax [4, 19]: 2760 ± 40 ng/mL | reduction of urinary excretion [5]: about 2 fold | fecal excretion [6]: about 2 % of the dose | urinary excretion [6]: > 50 % of the dose | AUC [7, 20]: 11600 ng·h/mL | Cmax [7, 20]: 870 ng/mL | AUC ([7]; without dasatinib): 11300 ng·h/mL | Cmax ([7]; without dasatinib): 960 ng/mL

CN/C(=N/CCSCc1nc[nH]c1C)NC#N [cimetidine]
IC50 [8, 21]: > 50 µM

C=CC(=O)N1CCC[C@@H](n2nc(-c3ccc(Oc4ccccc4)cc3)c3c(N)ncnc32)C1 [Ibrutinib]
IC50 [8]: 51.5 µM | IC50 [2]: 1.03 µM | inhibition at 10 µM ([2]; pH 7.4): 91.8%

CNC(=O)c1cc(Oc2ccc(NC(=O)Nc3ccc(Cl)c(C(F)(F)F)c3)cc2)ccn1 [Sorafenib]
inhibition at 10 µM [2, 15]: 83.8% | influence on OCT2 function (in words) [3]: no influence

CCN(CC)CCNC(=O)c1c(C)[nH]c(/C=C2\C(=O)Nc3ccc(F)cc32)c1C [Sunitinib]
IC50 [1]: […] | inhibition of MATE1-mediated uptake of TEA (in words) [2]: potently inhibiting | inhibition at 10 µM ([2]; pH 7.4): 98% | influence on OCT2 function (in words) [3]: potently inhibiting

CNC(=O)c1cc(Oc2ccc(NC(=O)Nc3ccc(Cl)c(C(F)(F)F)c3)c(F)c2)ccn1 [Regorafenib]
IC50 [1, 14]: < 10 µM | inhibition at 10 µM [2, 15]: 72.1% | influence on OCT2 function (in words) [3]: no influence

Cc1nc(Nc2ncc(C(=O)Nc3c(C)cccc3Cl)s2)cc(N2CCN(CCO)CC2)n1 [Dasatinib]
ability of cells to transport oxaliplatin after dasatinib pre-treatment (in words) [9]: dramatically impaired | ability of cells to transport oxaliplatin after dasatinib pre-treatment (in words) [10]: dramatically impaired | IC50 [1]: […] | inhibition of MATE1-mediated uptake of TEA (in words) [2]: completely inhibited | inhibition at 10 µM [2, 15]: 95.4% | expression of MATE1 (in words) [11]: downregulated | suppression of MATE1 gene expression [11]: ~ 50% | plasma levels of NMN (in words) [12]: transient, statistically significant increase | kidney-to-blood concentration ratio [13]: […]

Cc1cn(-c2cc(NC(=O)c3ccc(C)c(Nc4nccc(-c5cccnc5)n4)c3)cc(C(F)(F)F)c2)cn1 [Nilotinib]
IC50 [8, 21]: 45.4 µM and 45.3 µM | IC50 [1, 14]: […] | inhibition at 10 µM [2, 15]: 95.7% | expression of MATE1 (in words) [11]: downregulated
